The record followed here is BindingDB's records for doi:10.1021/cb600311v (University of California San Francisco, 2006).

Assay [1] concerns the target T1, Thyroid hormone receptor alpha (Homo sapiens, UniProt P10827).
T1 sequence (P10827 whole entry): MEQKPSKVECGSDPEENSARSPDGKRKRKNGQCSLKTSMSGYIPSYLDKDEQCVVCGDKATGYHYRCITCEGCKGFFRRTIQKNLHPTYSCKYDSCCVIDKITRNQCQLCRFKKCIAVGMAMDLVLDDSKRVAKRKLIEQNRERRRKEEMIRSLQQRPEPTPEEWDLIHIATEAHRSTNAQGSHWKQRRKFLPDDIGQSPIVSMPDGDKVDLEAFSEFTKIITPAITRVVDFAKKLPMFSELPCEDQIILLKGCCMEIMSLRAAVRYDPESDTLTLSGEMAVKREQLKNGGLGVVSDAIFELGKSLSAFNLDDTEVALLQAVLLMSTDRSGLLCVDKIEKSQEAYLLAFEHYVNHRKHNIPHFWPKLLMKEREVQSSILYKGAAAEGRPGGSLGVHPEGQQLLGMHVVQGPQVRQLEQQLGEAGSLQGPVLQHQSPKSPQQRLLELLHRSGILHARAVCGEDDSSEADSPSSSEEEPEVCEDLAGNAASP
The assay is described as follows: Transactivation Assay in U2OS cells. The text has this: TRE-driven dual-luciferase reporter assay in human bone osteosarcoma epithelial (U2OS) cell line.

Assay [2] deals with T1, Thyroid hormone receptor alpha. As to the kind of experiment: Competition Binding Assay. An excerpt:
(§1) Thyroid hormone competitive binding assay using TNT T7 quick-coupled transcription translation system from promega.

Assay [3] deals with T2, Thyroid hormone receptor beta (Homo sapiens, UniProt P10828).
T2 sequence (P10828 whole entry): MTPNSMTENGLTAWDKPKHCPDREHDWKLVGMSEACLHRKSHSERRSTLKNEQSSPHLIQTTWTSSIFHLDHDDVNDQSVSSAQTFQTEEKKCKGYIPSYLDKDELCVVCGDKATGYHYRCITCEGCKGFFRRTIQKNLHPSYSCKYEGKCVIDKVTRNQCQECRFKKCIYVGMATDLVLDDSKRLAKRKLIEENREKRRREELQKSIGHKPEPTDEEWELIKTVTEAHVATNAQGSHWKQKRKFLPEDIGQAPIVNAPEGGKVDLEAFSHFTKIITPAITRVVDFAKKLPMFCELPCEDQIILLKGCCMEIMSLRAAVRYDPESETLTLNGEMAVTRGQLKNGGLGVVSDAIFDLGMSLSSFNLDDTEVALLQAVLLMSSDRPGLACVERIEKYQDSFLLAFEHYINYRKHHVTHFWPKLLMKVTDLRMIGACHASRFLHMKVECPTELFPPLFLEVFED
As to the kind of experiment: Competition Binding Assay.
From the text: as §1

In general, EC50 refers to the concentration that produces a half-maximal response. Low values mean an effect from little substance, high ones a need for much substance. For orientation: Kd means the constant that tells how readily two partners part at equilibrium. A high value points to weaker binding. The compound `CC(C)c1cc(Oc2c(I)cc(Cc3[nH]c(=O)[nH]c3O)cc2I)ccc1O` registered an EC50 in assay [1] of 34 nM. Moreover, the Kd in assay [2] amounted to 1.2 nM; in assay [3], 1.7 nM.
On the same counts, the results for `Cc1cc(Cc2[nH]c(=O)[nH]c2O)cc(C)c1Oc1ccc(O)c(C(C)C)c1` [CO22] are 3870 nM, 286 nM and 280 nM.
